# Columns and labels:
# Flt4 = target: T1, Flt4 (Homo sapiens, UniProt P35916); assay: Radiometric kinase assay (Upstate panel); format: biochemical
# T1 construct: purchased Upstate Biotechnology, Dundee, UK
# c-Raf = target: T2, c-Raf (Homo sapiens, UniProt P04049); assay: Radiometric kinase assay (Upstate panel); format: biochemical
# T2 construct: purchased Upstate Biotechnology, Dundee, UK
# HCT 116 cells = assay: Flow cytometry, DNA content (propidium iodide); format: cell-based, human; conditions: 36 nM, 16 hours
# Procedure: HCT 116 cells were seeded at 10,000 cells per well in 12-well plates and cells were incubated 24 hr at 37° C. […] After 16 hrs, media was aspirated and placed in a labeled collection tube, cells were trypsinized with 100 μL trypsin for 5 min at room temperature, quenched with fresh media, and placed in the collection tube with their appropriate media aspirate. Cells were spun at 2000 RPM for 5 min, supernatant was aspirated, and cells were re-suspended in 50 μl, 1× phosphate buffered saline (PBS) and 200 μL 100% methanol. Samples were then placed at −20° C. Cells fixed in methanol were spun at 2000 RPM for 5 min, supernatant was removed and cells were washed with 500 μL 0.1% bovine serum albumin (BSA) in PBS. Cells were re-suspended in 100 μL propidium iodide (PI) staining solution [prepared from 10 μg/mL PI (Sigma #P4864), 100 μg/mL RNase (Sigma #R4642) in PBS] and incubated at 37° C. for 1 hr. Cell populations were then analyzed by flow cytometry on Fluorescence-Activated Cell Sorter (FACS) instrumentation (FACSCalibur; Becton-Dickinson) according to common techniques. The distribution of cells in the various phases of cell cycle was assessed by propidium iodide (PI) staining of DNA. The total intensity of PI was considered to reflect the DNA content of cells.
# A2780 = assay: cells; conditions: Homo sapiens, A2780, 96 h, read-out: BrdU IC50
# Procedure: (§1) Cellular proliferation was assessed using the Cell Proliferation ELISA, bromodeoxyuridine (BrdU) kit (Roche) including reagents, according to the kit protocol.
# A375 = assay: cells; conditions: Homo sapiens, A-375, 96 h, read-out: BrdU IC50
# Procedure: as §1
# Calu-6 = assay: cells; conditions: Homo sapiens, Calu-6, 96 h, read-out: BrdU IC50
# Procedure: as §1
# H1299 = assay: cells; conditions: Homo sapiens, NCI-H1299, 96 h, read-out: BrdU IC50
# Procedure: as §1
# HCT116 = assay: cells; conditions: Homo sapiens, HCT-116, 96 h, read-out: BrdU IC50
# Procedure: as §1
# HeLa = assay: cells; conditions: Homo sapiens, 96 h, read-out: BrdU IC50
# Procedure: as §1
# MDA-MB-231 = assay: cells; conditions: Homo sapiens, MDA-MB-231, 96 h, read-out: BrdU IC50
# Procedure: as §1
# PC3 = assay: cells; conditions: Homo sapiens, PC-3, 96 h, read-out: BrdU IC50
# Procedure: as §1
# HCT 116 tumor xenograft = assay: Microscopy of tumor sections (Caspase-3, H&E); format: in vivo, mouse; conditions: 170 mg/kg twice-weekly for three weeks
# Procedure: The studies in Examples 20, 21, and 22 used female mice nu/nu athymic mice. Compound 1 was formulated fresh each week for dosing.
# HCT 116 colorectal carcinoma cells were implanted in the animals' right hind flanks subcutaneously with 200 μL of a 2.5×10^7 cells/mL suspension [1:1 Dulbecco's PBS (DPBS) with cells:Matrigel™. For each of the studies of compound distribution, pHH3 levels, and tumor section microscopy, after the tumors reached an average volume of 500 mm^3, the animals were weighed and sorted into randomized groups before initial dosing. Dosing schedules are provided separately for each of the studies in Examples 28, 29, and 30.
# Following the treatment, tumors were harvested, placed in Streck fixative, paraffin embedded, sectioned, and transferred to slides. Tumor sections were stained with hematoxylin and eosin (H&E). Hematoxylin stains negatively charged nucleic acid structures, such as nuclei and ribosomes, blue, whereas eosin stains proteins pink. Treatments were administered on Day 1, 4, 8, 11, 15, and 18, with tumors being excised Day 4, 11, 18, and 25 of the study. All images in this Figure were taken at 40× magnification.
# [1] = test system: cleaved PARP in HCT 116 xenograft tumors; assay: PARP cleavage in tumor lysates (western blotting); format: in vivo, mouse; conditions: single IP dose 170 mg/kg
# Procedure: PARP cleavage was measured in HCT 116 (colon carcinoma) and MV-4-11 tumor lysates by western blotting. […] HCT 116 tumors were collected 3, 6 and 12 hrs post dosing; MV-4-11 tumors were collected at 2, 6 and 24 hrs post dosing. […] Tumors were lysed in cell extraction buffer (Biosource # FNN0011) containing protease inhibitors (Sigma # P2714), and PMSF Phenylmethanesulfonyl fluoride (PMSF) [#P7626, Sigma]. Forty micrograms of protein for each sample was loaded and run on 4-12% Tris-Glycine NuPAGE gel (Invitrogen), in Novex Tris-Glycine running buffer (Invitrogen). After gel separation, proteins were electro-transferred to a PVDF membrane (Invitrogen).
# pHH3 in HT-29 = assay: cells; conditions: Homo sapiens, HT-29, 1 h, read-out: pHH3 IC50
# [2] = Bioavailability profile, IV, IP and PO; format: in vivo, mice; conditions: for F: mice, 50 mg/kg Compound 1, bioavailability
# Description: Pharmacokinetic parameters were estimated using noncompartmental analysis within WinNonlin v. 4.1. […] For rising dose experiments measuring exposure for each species, sets containing several animals were singly dosed at a given dose. […] Abbreviations are as in Table 18; F is fraction of dose absorbed.
# [3] = Protein binding, Rapid Equilibrium Dialysis; format: in vitro ADME; conditions: 15 μM
# Procedure: Studies were performed using the Rapid Equilibrium Dialysis (RED) device (Linden Bioscience). Inserts were soaked in water for 10 min×2, then removed and drained immediately prior to use. […] All experiments were performed in duplicate and each chamber was sampled in duplicate. The samples were incubated for 4-6 h at 37° C. in a rotating incubator (100 rpm). Compound 2 was quantified using LC-MS/MS. Data from duplicate samples each sampled twice.
# [4] = CD-1, mouse, plasma, ip, 50 mg/kg
# [5] = CD-1, mouse, plasma, iv, 50 mg/kg
# [6] = CD-1, mouse, plasma, po, 50 mg/kg
# T1 sequence (P35916 25-1363): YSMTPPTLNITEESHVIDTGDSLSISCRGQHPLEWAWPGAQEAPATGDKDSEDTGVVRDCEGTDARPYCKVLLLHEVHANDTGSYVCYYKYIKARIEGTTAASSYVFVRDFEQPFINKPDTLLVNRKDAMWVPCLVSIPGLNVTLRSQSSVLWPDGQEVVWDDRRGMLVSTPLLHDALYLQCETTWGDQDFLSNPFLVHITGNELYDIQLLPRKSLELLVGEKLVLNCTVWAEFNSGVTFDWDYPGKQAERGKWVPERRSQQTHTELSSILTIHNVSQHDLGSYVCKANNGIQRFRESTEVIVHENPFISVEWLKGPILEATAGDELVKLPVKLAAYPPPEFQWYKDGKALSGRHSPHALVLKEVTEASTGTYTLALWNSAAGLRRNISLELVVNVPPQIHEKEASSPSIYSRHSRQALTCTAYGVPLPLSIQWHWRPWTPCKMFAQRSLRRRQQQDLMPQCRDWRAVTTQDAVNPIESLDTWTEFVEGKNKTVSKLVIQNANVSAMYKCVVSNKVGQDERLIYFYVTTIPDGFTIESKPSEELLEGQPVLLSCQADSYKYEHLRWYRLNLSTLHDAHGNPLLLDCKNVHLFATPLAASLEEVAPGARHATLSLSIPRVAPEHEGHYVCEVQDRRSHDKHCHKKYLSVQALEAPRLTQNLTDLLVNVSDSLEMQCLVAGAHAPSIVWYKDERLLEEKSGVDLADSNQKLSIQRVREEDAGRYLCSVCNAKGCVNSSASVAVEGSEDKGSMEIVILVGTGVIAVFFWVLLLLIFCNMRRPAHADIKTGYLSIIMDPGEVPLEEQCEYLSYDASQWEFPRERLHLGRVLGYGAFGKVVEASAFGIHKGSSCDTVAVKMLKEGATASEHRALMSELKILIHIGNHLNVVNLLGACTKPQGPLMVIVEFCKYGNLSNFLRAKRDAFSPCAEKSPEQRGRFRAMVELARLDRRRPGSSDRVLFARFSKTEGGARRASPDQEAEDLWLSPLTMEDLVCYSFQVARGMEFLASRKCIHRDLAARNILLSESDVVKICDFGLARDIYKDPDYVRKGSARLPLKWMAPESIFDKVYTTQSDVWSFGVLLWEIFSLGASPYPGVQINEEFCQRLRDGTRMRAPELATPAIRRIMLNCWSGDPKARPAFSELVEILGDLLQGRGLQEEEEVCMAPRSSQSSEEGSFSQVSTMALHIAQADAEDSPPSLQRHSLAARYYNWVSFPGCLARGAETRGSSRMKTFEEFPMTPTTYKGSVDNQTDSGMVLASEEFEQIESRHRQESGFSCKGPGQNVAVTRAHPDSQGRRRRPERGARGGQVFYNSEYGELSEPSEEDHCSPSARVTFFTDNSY
# T2 sequence (P04049 whole entry): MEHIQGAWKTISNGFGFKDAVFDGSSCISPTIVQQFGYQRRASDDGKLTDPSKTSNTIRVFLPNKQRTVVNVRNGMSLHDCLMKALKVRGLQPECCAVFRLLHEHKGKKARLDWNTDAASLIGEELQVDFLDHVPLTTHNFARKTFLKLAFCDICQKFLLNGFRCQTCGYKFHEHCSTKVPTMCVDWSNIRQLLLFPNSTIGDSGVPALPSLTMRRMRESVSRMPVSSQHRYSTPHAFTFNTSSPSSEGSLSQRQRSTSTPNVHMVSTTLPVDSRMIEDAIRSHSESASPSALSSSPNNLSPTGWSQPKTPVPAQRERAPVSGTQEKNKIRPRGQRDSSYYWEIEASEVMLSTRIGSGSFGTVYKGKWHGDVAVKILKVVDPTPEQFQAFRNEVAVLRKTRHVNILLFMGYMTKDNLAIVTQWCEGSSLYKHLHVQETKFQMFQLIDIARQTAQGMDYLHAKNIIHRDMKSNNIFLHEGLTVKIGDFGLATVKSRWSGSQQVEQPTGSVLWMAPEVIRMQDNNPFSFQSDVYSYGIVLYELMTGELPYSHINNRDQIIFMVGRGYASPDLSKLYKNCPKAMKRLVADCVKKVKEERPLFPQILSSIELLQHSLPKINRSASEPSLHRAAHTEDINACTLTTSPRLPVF
compound,measurement,setting,value
"CS(=O)(=O)O.O=C(Nc1cccc(Cl)c1)Nc1ncc(CCNc2ncnc3ccsc23)s1 [Compound 1, 1-(3-chlorophenyl)-3-{5-[2-(thieno[3,2-d]pyrimidin-4-ylamino)ethyl]thiazo}-urea]",IC50,Flt4,0.014 µM
same,IC50,c-Raf,0.1 µM
same,DNA content of cells,HCT 116 cells,predominantly 4N and 8N DNA content
same,IC50,A2780,1.8 nM
same,IC50,A375,5.9 nM
same,IC50,Calu-6,13.3 nM
same,IC50,H1299,4 nM
same,IC50,HCT116,6.4 nM
same,IC50,HeLa,9.3 nM
same,IC50,MDA-MB-231,8.1 nM
same,IC50,PC3,4.4 nM
same,large polyploid cells in tumor,HCT 116 tumor xenograft,appeared by Day 4 and persisted for at least 25 days
same,caspase-3 positive cells in tumor versus vehicle,HCT 116 tumor xenograft; up to 18 days,significant increase
same,time after dose PARP cleavage is maintained,[1],at least 12 hr
same,time after dose at which PARP cleavage became evident,[1],3 h
same,IC50,pHH3 in HT-29,60 nM
"O=C(Nc1cccc(Cl)c1)Nc1ncc(CCNc2ncnc3ccsc23)s1 [Compound 2, 1-(3-chlorophenyl)-3-{5-[2-(thieno[3,2-d]pyrimidin-4-ylamino)ethyl]thiazol-2-yl}-urea]",AUC(0-inf),[2]; [4],46200 ng·h/mL
same,half-life,[2]; [4],42 min
same,AUC(0-inf),[2]; [5],43600 ng·h/mL
same,C0,[2]; [5],42000 ng/mL
same,clearance,[2]; [5],19.1 mL/min/kg
same,half-life,[2]; [5],48 min
same,Vd,"[2]; CD-1, mouse, plasma, iv, 50 mg/kg, read-out: Vss",1.2 L/kg
same,AUC(0-inf),[2]; [6],28300 ng·h/mL
same,half-life,[2]; [6],198 min
same,F,[2]; IP,106%
same,F,[2]; PO,65%
same,mean percentage protein-bound,[3]; dog plasma,greater than or equal to 99.9%
same,mean percentage protein-bound,[3]; human plasma,greater than or equal to 99.9%
same,mean percentage protein-bound,[3]; mouse plasma,greater than or equal to 99.9%
